pIC50: −log10 of the molar value.
Columns and labels:
P2X purinoceptor 7 = molecular target: T1, P2X purinoceptor 7 (Mus musculus, UniProt Q9Z1M0); experiment: Antagonist activity against mouse P2X7 receptor expressed in ATP-stimulated HEK293 cells assessed as influx of PI by fluorescence dye uptake assay relative to control; type: cell-based
T1 sequence (Q9Z1M0 whole entry): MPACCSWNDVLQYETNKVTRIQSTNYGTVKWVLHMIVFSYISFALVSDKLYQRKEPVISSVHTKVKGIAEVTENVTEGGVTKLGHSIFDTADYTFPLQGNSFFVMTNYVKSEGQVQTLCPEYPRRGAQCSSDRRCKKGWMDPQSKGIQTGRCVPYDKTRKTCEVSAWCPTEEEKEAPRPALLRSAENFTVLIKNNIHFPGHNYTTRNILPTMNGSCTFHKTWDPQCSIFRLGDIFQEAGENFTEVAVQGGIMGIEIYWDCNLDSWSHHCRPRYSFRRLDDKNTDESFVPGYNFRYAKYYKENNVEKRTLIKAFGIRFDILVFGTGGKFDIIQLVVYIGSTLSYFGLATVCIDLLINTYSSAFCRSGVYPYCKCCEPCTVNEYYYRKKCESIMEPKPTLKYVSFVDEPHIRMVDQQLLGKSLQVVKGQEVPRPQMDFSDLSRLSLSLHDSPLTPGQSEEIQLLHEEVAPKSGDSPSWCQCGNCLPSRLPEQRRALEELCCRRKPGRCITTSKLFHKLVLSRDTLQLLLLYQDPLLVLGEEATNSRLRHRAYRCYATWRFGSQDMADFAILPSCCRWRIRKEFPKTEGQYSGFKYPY

[1] = Metabolic stability in human liver microsomes assessed as clearance; type: ADME, Microsome; details: read-out: CLH
[2] = Metabolic stability in human liver microsomes assessed as half life; type: ADME, Microsome
[3] = Metabolic stability in mouse liver microsomes assessed as clearance; type: ADME, Microsome; details: read-out: CLH
[4] = Metabolic stability in mouse liver microsomes assessed as half life; type: ADME, Microsome
[5] = AUC (0 to t) in male BALB/c mouse at 10 mg/kg, po single administration measured upto 72 hrs by LC-MS/MS analysis; type: ADME, organism-based; details: in vivo
[6] = Clearance in male BALB/c mouse at 10 mg/kg, po single administration measured upto 72 hrs by LC-MS/MS analysis; type: ADME, organism-based; details: in vivo
[7] = Cmax in male BALB/c mouse at 10 mg/kg, po single administration measured upto 72 hrs by LC-MS/MS analysis; type: ADME, organism-based; details: in vivo
[8] = Half life in male BALB/c mouse at 10 mg/kg, po single administration measured upto 72 hrs by LC-MS/MS analysis; type: ADME, organism-based; details: in vivo
[9] = Tmax in male BALB/c mouse at 10 mg/kg, po single administration measured upto 72 hrs by LC-MS/MS analysis; type: ADME, organism-based; details: in vivo
HEK293 [10] = experiment: Cytotoxicity against HEK293 cells expressing human P2X7 receptor assessed as cell viability upto 2 uM measured after 24 hrs incubation by CCK8 assay; type: toxicity, cell-based; details: hek293, 24 h
HEK293 [11] = experiment: Cytotoxicity against HEK293 cells expressing mouse P2X7 receptor assessed as cell viability upto 2 uM measured after 24 hrs incubation by CCK8 assay; type: toxicity, cell-based; details: human, hek293, 24 h
[12] = Stability in Balb/c mouse plasma measured upto 8 hrs; type: ADME, cell-free
[13] = Plasma protein binding in plasma (unknown origin) at 10 uM measured after 6 hrs incubation by LC-MS/MS analysis; type: ADME, cell-free; details: read-out: PPB (converted)
CYP2C9 = CYP2C9 (Homo sapiens, UniProt P11712); experiment: Inhibition of CYP2C9 in human liver microsomes assessed as compound remaining at 1 uM measured after 2 hrs incubation by LC-MS/MS analysis; type: ADME, Microsome; details: read-out: Activity
CYP1A2 = molecular target: T2, CYP1A2 (Homo sapiens, UniProt P05177); experiment: Inhibition of CYP1A2 in human liver microsomes assessed as compound remaining at 1 uM measured after 2 hrs incubation by LC-MS/MS analysis; type: ADME, Microsome; details: read-out: Activity
T2 sequence (P05177 whole entry): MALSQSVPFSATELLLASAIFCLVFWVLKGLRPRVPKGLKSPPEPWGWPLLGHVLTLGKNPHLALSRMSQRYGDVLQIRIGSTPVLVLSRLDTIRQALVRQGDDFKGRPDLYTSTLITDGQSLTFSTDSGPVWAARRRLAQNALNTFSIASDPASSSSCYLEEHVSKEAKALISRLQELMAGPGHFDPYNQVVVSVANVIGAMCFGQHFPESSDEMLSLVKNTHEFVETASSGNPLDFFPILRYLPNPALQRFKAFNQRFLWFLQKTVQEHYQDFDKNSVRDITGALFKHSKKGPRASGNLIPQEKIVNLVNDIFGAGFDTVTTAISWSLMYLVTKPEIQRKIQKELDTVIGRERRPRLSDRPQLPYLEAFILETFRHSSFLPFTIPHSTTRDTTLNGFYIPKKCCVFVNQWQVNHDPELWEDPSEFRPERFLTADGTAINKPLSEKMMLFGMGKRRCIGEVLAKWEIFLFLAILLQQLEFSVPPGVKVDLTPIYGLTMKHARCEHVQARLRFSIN

CYP2A6 = molecular target: T3, CYP2A6 (Homo sapiens, UniProt P11509); experiment: Inhibition of CYP2A6 in human liver microsomes assessed as compound remaining at 1 uM measured after 2 hrs incubation by LC-MS/MS analysis; type: ADME, Microsome; details: read-out: Activity
T3 sequence (P11509 whole entry): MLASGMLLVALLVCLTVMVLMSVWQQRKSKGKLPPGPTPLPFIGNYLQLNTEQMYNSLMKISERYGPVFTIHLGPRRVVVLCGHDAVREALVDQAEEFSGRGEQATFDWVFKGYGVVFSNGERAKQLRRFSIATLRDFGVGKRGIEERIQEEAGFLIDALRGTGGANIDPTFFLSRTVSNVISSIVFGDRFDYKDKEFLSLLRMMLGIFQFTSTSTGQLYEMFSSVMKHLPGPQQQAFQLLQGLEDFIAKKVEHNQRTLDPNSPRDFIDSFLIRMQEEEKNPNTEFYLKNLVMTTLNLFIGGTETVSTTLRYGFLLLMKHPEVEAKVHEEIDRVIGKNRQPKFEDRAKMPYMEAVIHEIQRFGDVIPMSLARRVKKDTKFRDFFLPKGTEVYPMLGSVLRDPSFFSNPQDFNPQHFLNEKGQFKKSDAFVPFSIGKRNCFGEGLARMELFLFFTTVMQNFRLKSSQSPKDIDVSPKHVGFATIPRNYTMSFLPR

CYP2C19 = CYP2C19 (Homo sapiens, UniProt P33261); experiment: Inhibition of CYP2C19 in human liver microsomes assessed as compound remaining at 1 uM measured after 2 hrs incubation by LC-MS/MS analysis; type: ADME, Microsome; details: read-out: Activity
CYP2D6 = CYP2D6 (Homo sapiens, UniProt P10635); experiment: Inhibition of CYP2D6 in human liver microsomes assessed as compound remaining at 1 uM measured after 2 hrs incubation by LC-MS/MS analysis; type: ADME, Microsome; details: read-out: Activity
CYP2E1 = CYP2E1 (Homo sapiens, UniProt P05181); experiment: Inhibition of CYP2E1 in human liver microsomes assessed as compound remaining at 1 uM measured after 2 hrs incubation by LC-MS/MS analysis; type: ADME, Microsome; details: read-out: Activity
CYP3A4 = CYP3A4 (Homo sapiens, UniProt P08684); experiment: Inhibition of CYP3A4 in human liver microsomes assessed as compound remaining at 1 uM measured after 2 hrs incubation by LC-MS/MS analysis; type: ADME, Microsome; details: read-out: Activity
[14] = Toxicity in female C57BL/6 mouse assessed as decrease in body weight at 2 g/Kg measured for 2 to 6 days; details: in vivo, 2000 mg/kg, time 2-6 day
[15] = Toxicity in C57BL/6 mouse assessed as change in body weight at 2 g/Kg measured for 14 days; details: in vivo, 2000 mg/kg, 336 h, time 14 day
[16] = molecular target: Voltage-gated inwardly rectifying potassium channel KCNH2 (Homo sapiens, UniProt Q12809); experiment: Inhibition of hERG; type: toxicity
Sequence of Voltage-gated inwardly rectifying potassium channel KCNH2 (Q12809 whole entry): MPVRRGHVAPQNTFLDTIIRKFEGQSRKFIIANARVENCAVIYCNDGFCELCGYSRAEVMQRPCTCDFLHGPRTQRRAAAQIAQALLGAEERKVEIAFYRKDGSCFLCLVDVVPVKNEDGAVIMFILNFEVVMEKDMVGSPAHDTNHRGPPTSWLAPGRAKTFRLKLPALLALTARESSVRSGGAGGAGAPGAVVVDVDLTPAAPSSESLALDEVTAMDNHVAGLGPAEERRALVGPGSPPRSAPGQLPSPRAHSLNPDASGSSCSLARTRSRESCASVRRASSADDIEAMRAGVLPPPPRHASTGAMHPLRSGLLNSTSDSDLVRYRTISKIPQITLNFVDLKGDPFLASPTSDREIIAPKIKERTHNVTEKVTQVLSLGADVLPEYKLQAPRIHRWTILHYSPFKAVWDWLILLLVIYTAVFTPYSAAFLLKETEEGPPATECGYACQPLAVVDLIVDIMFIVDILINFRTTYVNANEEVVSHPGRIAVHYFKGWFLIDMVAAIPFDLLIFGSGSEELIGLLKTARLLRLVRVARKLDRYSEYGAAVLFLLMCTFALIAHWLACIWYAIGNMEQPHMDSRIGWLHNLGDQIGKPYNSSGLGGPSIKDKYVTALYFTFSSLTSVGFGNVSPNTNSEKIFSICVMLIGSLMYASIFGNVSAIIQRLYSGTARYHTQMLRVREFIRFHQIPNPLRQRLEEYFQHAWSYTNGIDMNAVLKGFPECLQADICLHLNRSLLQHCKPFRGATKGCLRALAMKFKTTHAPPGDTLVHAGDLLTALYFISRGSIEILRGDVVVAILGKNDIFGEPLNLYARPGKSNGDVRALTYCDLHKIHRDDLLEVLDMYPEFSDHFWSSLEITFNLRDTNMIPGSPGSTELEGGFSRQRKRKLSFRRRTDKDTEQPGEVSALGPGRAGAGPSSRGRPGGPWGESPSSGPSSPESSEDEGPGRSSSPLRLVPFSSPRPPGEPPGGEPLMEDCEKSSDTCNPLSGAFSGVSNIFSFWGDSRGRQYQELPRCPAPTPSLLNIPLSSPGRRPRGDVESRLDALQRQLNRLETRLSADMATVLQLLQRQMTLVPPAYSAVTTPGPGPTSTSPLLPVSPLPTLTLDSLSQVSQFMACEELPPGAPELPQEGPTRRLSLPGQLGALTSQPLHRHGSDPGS

Sequence of CYP2D6 (P10635 whole entry): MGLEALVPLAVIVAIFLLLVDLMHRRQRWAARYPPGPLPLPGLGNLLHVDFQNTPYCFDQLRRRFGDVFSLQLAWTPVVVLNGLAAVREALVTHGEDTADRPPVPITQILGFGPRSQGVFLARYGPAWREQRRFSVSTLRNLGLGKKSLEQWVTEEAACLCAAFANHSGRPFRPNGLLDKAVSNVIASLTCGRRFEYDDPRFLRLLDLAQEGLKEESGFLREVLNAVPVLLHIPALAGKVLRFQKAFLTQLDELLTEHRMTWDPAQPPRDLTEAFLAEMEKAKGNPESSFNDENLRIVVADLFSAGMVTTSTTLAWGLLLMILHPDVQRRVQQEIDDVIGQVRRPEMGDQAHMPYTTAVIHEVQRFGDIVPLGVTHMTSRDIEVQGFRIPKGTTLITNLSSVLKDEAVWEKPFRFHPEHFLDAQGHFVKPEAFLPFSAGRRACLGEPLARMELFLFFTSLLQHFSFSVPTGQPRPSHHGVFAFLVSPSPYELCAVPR
Sequence of CYP2E1 (P05181 whole entry): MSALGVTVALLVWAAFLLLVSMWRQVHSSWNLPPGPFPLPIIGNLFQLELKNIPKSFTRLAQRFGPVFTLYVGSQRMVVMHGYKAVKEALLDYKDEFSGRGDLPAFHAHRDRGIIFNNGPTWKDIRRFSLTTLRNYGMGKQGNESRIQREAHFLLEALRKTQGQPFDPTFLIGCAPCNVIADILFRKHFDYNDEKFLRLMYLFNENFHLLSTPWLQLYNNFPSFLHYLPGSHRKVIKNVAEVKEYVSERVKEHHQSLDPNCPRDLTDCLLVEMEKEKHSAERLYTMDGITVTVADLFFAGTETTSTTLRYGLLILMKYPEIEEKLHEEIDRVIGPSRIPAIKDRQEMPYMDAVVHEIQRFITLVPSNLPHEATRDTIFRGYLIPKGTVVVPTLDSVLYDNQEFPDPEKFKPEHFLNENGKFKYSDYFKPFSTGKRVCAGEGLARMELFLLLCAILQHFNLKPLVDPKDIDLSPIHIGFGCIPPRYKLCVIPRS
Sequence of CYP2C9 (P11712 whole entry): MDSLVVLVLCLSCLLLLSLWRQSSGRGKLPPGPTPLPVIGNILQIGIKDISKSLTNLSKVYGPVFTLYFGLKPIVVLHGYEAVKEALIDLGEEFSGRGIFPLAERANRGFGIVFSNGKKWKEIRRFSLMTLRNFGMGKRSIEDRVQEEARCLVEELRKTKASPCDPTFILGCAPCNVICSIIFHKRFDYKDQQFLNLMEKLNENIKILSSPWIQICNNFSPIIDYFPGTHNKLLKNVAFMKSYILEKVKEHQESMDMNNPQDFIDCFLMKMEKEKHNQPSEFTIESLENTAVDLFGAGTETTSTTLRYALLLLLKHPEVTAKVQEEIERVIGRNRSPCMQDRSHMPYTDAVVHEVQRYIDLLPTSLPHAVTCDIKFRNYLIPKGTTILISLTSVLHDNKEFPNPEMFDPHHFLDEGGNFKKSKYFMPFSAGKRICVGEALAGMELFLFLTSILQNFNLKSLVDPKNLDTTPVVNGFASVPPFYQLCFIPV
Sequence of CYP3A4 (P08684 whole entry): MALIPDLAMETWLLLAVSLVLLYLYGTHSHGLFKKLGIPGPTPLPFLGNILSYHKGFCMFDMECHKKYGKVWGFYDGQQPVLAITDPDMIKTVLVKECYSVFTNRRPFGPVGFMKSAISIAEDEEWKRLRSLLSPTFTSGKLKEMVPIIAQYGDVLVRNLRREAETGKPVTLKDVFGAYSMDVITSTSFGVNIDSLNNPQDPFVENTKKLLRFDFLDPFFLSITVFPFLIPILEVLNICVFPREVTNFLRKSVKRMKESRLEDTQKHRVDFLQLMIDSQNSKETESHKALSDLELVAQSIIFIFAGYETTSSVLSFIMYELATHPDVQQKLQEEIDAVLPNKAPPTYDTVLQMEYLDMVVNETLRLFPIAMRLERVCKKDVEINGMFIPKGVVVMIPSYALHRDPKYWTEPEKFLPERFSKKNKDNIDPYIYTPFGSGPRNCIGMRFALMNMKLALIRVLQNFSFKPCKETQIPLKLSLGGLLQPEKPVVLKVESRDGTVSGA
Sequence of CYP2C19 (P33261 whole entry): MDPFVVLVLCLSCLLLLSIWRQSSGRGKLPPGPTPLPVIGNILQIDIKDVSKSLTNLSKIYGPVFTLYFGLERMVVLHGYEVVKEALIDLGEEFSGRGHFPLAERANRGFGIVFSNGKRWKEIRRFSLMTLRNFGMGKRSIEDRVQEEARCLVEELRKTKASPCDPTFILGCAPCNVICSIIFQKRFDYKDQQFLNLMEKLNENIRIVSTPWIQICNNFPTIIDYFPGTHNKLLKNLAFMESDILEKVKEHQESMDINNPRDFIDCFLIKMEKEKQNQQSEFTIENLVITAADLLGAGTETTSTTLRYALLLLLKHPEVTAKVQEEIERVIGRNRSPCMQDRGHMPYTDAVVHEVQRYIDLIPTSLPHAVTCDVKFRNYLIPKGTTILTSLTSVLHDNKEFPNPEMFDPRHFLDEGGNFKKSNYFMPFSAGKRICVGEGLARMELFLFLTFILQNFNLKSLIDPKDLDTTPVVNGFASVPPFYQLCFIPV

Row | pIC50 (P2X purinoceptor 7) | CLint scaled [1] [mL/min/kg] | half-life [2] [h] | CLint scaled [3] [mL/min/kg] | half-life [4] [h] | AUC(0-t) at 72 h [5] [µg·h/mL] | CL/F [6] [mL/min/kg] | Cmax [7] [ng/mL] | half-life [8] [h] | Tmax [9] [h] | Stability [12] | fraction unbound at 6 h, 10 µM [13] | remaining at 2 h, 1 µM (CYP2C9) [%] | remaining at 2 h, 1 µM (CYP1A2) [%] | remaining at 2 h, 1 µM (CYP2A6) [%] | remaining at 2 h, 1 µM (CYP2C19) [%] | remaining at 2 h, 1 µM (CYP2D6) [%] | remaining at 2 h, 1 µM (CYP2E1) [%] | remaining at 2 h, 1 µM (CYP3A4) [%] | Compound | other results
1 | 6.78 | < 12 | > 2 | < 12 | > 2 | 103 | 1.67 | 6610 | 6.6 | 3 | – | – | – | – | – | – | – | – | – | C[C@@H](NC(=O)c1csc(-c2ccc(S(C)(=O)=O)cc2)n1)c1cn(-c2cc(C(F)(F)F)ccn2)nn1 | Activity (HEK293 [10]): Non-toxic; Activity (HEK293 [11]): Non-toxic
2 | 7.26 | < 12 | > 2 | < 12 | > 2 | 86.5 | 2.17 | 6900 | 4.71 | 2.33 | Stable | 0.0213 | 84.2 | 84.2 | 84.2 | 84.2 | 84.2 | 84.2 | 84.2 | C[C@@H](NC(=O)c1cnc(-c2ccc(S(C)(=O)=O)cc2)s1)c1cn(-c2cc(C(F)(F)F)ccn2)nn1 | –
3 | 7.60 | < 12 | > 2 | < 12 | > 2 | 1160 | – | 19800 | 162 | 24 | Stable | 0.003 | 100 | 100 | 100 | 100 | 100 | 100 | 100 | C[C@H](NC(=O)c1cnc(-c2ccc(S(C)(=O)=O)cc2)s1)c1cn(-c2cc(C(F)(F)F)ccn2)nn1 | Activity [14]: Non-toxic; Activity [15]: Non-toxic; pIC50 [16]: < 4.52
